# Read-outs that look alike come from different tables or passages of the source. Marks after values point to notes of the source that are not given here.
# Experiments:
# DispersinB [1] = details: 50 mM citrate buffer pH 5.9, 100 mM K2SO4 sample = 100%
# DispersinB [2] = details: 50 mM Citrate, 100 mM NaCl pH 5.9 control = 100%
# Procedure: DispersinB enzyme solutions (100 μg/ml) were prepared in 50 mM citrate buffer, containing 200 mM K2SO4. The pH was adjusted (5.4 to 5.9). DispersinB enzymatic activity was measured using β-N-Acetylglucosaminidase assay kit from Sigma (product code CS0780) in 96-well microtiter plate following the manufacturer's instructions. The data was represented as % enzymatic activity in comparison to enzyme activity of control sample that contained 100 μg/ml DispersinB in 50 mM citrate buffer (pH 5.9) containing 100 mM NaCl Activity of the control sample was considered 100%.
# DispersinB [3] = assay type: biochemical, Aggregatibacter actinomycetemcomitans; details: 50 mM citrate buffer pH 5.9, salt concentration as in label, control with no salts = 100%
# Excerpt: Activity of the control sample with no salts was considered 100%.
# DispersinB [4] = assay type: biochemical, Aggregatibacter actinomycetemcomitans; details: 50 mM citrate buffer pH 5.9, 100 mM NaCl, levulinic acid % as in label, control = 100%
# Procedure: DispersinB enzyme (100 μg/ml) solutions in 50 mM citrate buffer (pH 5.9), 100 mM NaCl containing Levulinic acid (0.25%-2%) were tested for DispersinB enzymatic activity following β-N-Acetylglucosaminidase assay.
compound,measurement,setting,value
"O=S(=O)([O-])[O-].[K+].[K+] [K2SO4, potassium sulfate]",% Activity,DispersinB [1]; 100 mM K2SO4,100%
same,% Activity,DispersinB [1]; 150 mM K2SO4,143* %
same,% Activity,DispersinB [1]; 200 mM K2SO4,149* %
same,% Activity,DispersinB [1]; 250 mM K2SO4,159* %
same,% Activity,DispersinB [1]; 300 mM K2SO4,141* %
same,% Activity,DispersinB [2]; pH 4,11.06^ab %
same,% Activity,DispersinB [2]; pH 4.2,22.55^ab %
same,% Activity,DispersinB [2]; pH 4.4,34.17^ab %
same,% Activity,DispersinB [2]; pH 4.6,57.21 ^ab %
same,% Activity,DispersinB [2]; pH 4.8,81.09 ^ab %
same,% Activity,DispersinB [2]; pH 5,118.00 ^ab %
same,% Activity,DispersinB [2]; pH 5.1,133.61 ^ab %
same,% Activity,DispersinB [2]; pH 5.2,149.86 ^ab %
same,% Activity,DispersinB [2]; pH 5.3,142.65 ^ab %
same,% Activity,DispersinB [2]; pH 5.4,162.25^a %
same,% Activity,DispersinB [2]; pH 5.5,172.83^a %
same,% Activity,DispersinB [2]; pH 5.6,166.67^a %
same,% Activity,DispersinB [2]; pH 5.7,154.62^a %
same,% Activity,DispersinB [2]; pH 5.8,146.99 ^ab %
same,% Activity,DispersinB [2]; pH 5.9,143.77 ^ab %
same,% Activity,DispersinB [2]; pH 6,130.81 ^ab %
same,% enzymatic activity of DispersinB (Mean),DispersinB [3]; listed as 100 mM K2SO4,211* %
same,% enzymatic activity of DispersinB (Mean),DispersinB [3]; listed as 200 mM K2SO4,289* %
"CC(=O)CCC(=O)O [Levulinic acid, 4-oxopentanoic acid]",% enzymatic activity of DispersinB (Mean),DispersinB [4]; listed as 0.25% Levulinic acid,103* %
same,% enzymatic activity of DispersinB (Mean),DispersinB [4]; listed as 0.5% Levulinic acid,102%
same,% enzymatic activity of DispersinB (Mean),DispersinB [4]; listed as 1% Levulinic acid,104%
same,% enzymatic activity of DispersinB (Mean),DispersinB [4]; listed as 2% Levulinic acid,104* %
same,% enzymatic activity of DispersinB (Mean),DispersinB [4]; listed as 3% Levulinic acid,109* %
same,% enzymatic activity of DispersinB (Mean),DispersinB [4]; listed as 4% Levulinic acid,109* %
same,% enzymatic activity of DispersinB (Mean),DispersinB [4]; listed as 5% Levulinic acid,114* %

# From patent US20240041991A1, “STABLE LIQUID DISPERSINB COMPOSITIONS” (KANE BIOTECH INC., priority 2020, published 2024)
